Target: PIK3CB;PIK3CG;PIK3CD;PIK3CA (human) (UniProt P48736)
Experiment: Inhibition of PIK3CA/PIK3CB/PIK3CD/PIK3CG Kinase Activity

| SMILES | IC50 [nM] |
| --- | --- |
| COC[C@H]1OC(=O)/C(=C/Sc2ccccc2)C2=C(O)C(=O)C3=C([C@H](OC(C)=O)C[C@]4(C)C(=O)CC[C@@H]34)[C@]21C | 1 |
| COC[C@H]1OC(=O)/C(=C/SC(C)C)C2=C(O)C(=O)C3=C([C@H](OC(C)=O)C[C@]4(C)C(=O)CC[C@@H]34)[C@]21C | 0.1 |
| C=CCN(/C=C1/C(=O)O[C@H](COC)[C@@]2(C)C1=C(O)C(=O)C1=C2[C@H](OC(C)=O)C[C@]2(C)C(=O)CC[C@@H]12)CC=C | 0.1 |
| COC[C@H]1OC(=O)/C(=C/N(C)Cc2ccccc2)C2=C(O)C(=O)C3=C([C@H](OC(C)=O)C[C@]4(C)C(=O)CC[C@@H]34)[C@]21C | 0.8 |
| COC[C@H]1OC(=O)/C(=C/NCCCN(C)C)C2=C(O)C(=O)C3=C([C@H](OC(C)=O)C[C@]4(C)C(=O)CC[C@@H]34)[C@]21C | 1 |
| COC[C@H]1OC(=O)/C(=C/NCC(N)=O)C2=C(O)C(=O)C3=C([C@H](OC(C)=O)C[C@]4(C)C(=O)CC[C@@H]34)[C@]21C | 10 |
| C=CCN/C=C1/C(=O)O[C@H](COC)[C@@]2(C)C1=C(O)C(=O)C1=C2[C@H](OC(C)=O)C[C@]2(C)C(=O)CC[C@@H]12 | 7.5 |
| COC[C@H]1OC(=O)/C(=C/N(Cc2ccccc2)Cc2ccccc2)C2=C(O)C(=O)C3=C([C@H](OC(C)=O)C[C@]4(C)C(=O)CC[C@@H]34)[C@]21C | 0.3 |
| COC[C@H]1OC(=O)/C(=C/NCCc2ccccc2)C2=C(O)C(=O)C3=C([C@H](OC(C)=O)C[C@]4(C)C(=O)CC[C@@H]34)[C@]21C | 2 |
| COC[C@H]1OC(=O)/C(=C/N)C2=C(O)C(=O)C3=C([C@H](OC(C)=O)C[C@]4(C)C(=O)CC[C@@H]34)[C@]21C | 2 |
| COC[C@H]1OC(=O)/C(=C/N2CCCC2)C2=C(O)C(=O)C3=C([C@H](OC(C)=O)C[C@]4(C)C(=O)CC[C@@H]34)[C@]21C | 1.1 |
